One assay relates to Syrian Golden hamsters. As to the kind of experiment: In vivo serum cholesterol lowering in hamsters fed a cholesterol test diet. The following applies: hamsters; for Serum Cholesterol Mean: 0.2% (w/w) in Cholesterol Test Diet for one week, equivalent to 100 mg/kg/day, groups of six, control mean 337; for Percent Lowering of Cholesterol from Control Value Mean / inhibition in vivo at 100 mg/kg/day: 0.2% (w/w) in diet for one week (100 mg/kg/day), negative values = serum cholesterol increased relative to control; for inhibition in vivo at 100 mg/kg/day: Mesocricetus auratus, feed or water, 168 h, read-out: Percent Lowering of Cholesterol from Control Value Mean. As for the experimental part:
Syrian Golden hamsters were fed a cholesterol test diet made of 10% coconut oil and 0.12% cholesterol (by weight) in Purina 5001 Rodent Chow to induce hypercholesteriolemia.
After two weeks on the cholesterol test diet the hamsters were bled from the orbital sinium under light CO2 anesthesia. Serum was prepared and analyzed for cholesterol using a commercial test kit (Cholesterol High Performance, Single Vial™, product of Boehringer Mannheim Corp., Indianapolis, IN, USA). The hamsters were separated into groups of six animals, such that each group had approximately the same mean serum cholesterol levels. Selected compounds of the invention were incorporated into the Cholesterol Test Diet at 0.2% (w/w) and fed to the hamsters for one week. A control group of hamsters continued on the Cholesterol Test Diet during the same one-week period. The dose of test compounds of the invention was equivalent to 100 mg/kg/day based on the weight of the hamsters and their diet consumption. Upon completion of the test period, the animals were bled and serum cholesterol determined as above.
Mean serum cholesterol values from the test hamsters were compared to values from the control group and tested for significance at the Z.05 level using Dunnett's test.

Assay [1] concerns human LDL receptor promoter. As to the kind of experiment: in vitro Luciferase Activity Test (LDL receptor promoter-luciferase reporter in recombinant CHO cells). Type of assay: cell-based. Further details: MED: unit not given here. Particulars: for MED: minimum effective dose (molar concentration, unit not given), 24 hr, assay medium with 0.5 µg/ml 25-hydroxycholesterol; for MA% / Emax: maximum activity (%) over control; for Emax: Homo sapiens, CHO, read-out: MA%; for RED: relative effective dose compared to compound of Example 4, below one = more active. On the procedure:
A 1546 base pair sequence of the human LDL receptor promoter was amplified using the polymerase chain reaction. A reaction mixture containing 20 pMoles each of the synthetic oligonucleotides 5'-[…]-3' (Seq. I.D. No: 1) and 5'-AAG-[…]-3', (Seq. I.D. No:2) 1 µg human genomic DNA purified from the adenocarcinoma cell line P3UCLA, 200 µM each of dATP, dGTP, dCTP, and TTP, 2.5 units of Taq DNA polymerase, 10mM Tris-HCI pH 8.3, 50 mM KCI, […], 0.1% gelatin in a final volume of 100 µl was subjected to 30 cycles of 15 sec at 96°C, 30 sec at 55°C, and 1 min at 72°C. The material was subject to gel electrophoresis on a 1% agarose gel and the 1546 base pair band was isolated and restriction enzyme digested with Hind III and Nde I. This fragment was ligated into the plasmid pSP72 (ProMega Biotech), which had previously been restriction enzyme nuclease digested with Hind III and Nde I. The resulting vector, pNLDLRP, was restriction endonulease digested with Ndel and Hind III and the material was again run on a 1% agarose gel to reisolate the 1546 bp LDL receptor sequence.
Plasmid vector PSv2 was constructed by digesting plasmid pSv2-globin with Hind III and Bgl II then ligating an Nrul-Xhol linker into the vector. Plasmid pSv2 globin is disclosed in U.S. Patent No. 4,775,624, the entire teaching of which is herein incorporated by reference. The linker contained the following sequences: [formula] (Seq. I.D. No: 3), and [formula] ' (Seq. I.D. No:4).
The resulting vector was designated pSv2-H NXB because it contained a […], an Nrul site, an Xhol site and a Bgl site. The Hind III-Bgl II fragment of plasmid pAlc4(NRRL B-18783), which contains the firefly luciferase gene, was then ligated into the Hin III-Bgl site of plasmid pSv2-HNXB. A neomycin resistance-conforming gene was then ligated into the Bam HI site of the resultant plasmid to form plasmid pSv2.
A 1546 base pair fragment was isolated and cloned into a Ndel and Hind III (partial) restriction digested vector pSv2 containing the firefly luciferase reporter gene and a gene for neomycin resistance. The resulting vector, pLDL-Luc1 Neo-10, contains the human LDL receptor promoter driving expression of the firefly luciferase gene, a gene coding for neomycin resistance, ampicillin resistant marker and an origin of replication.
Plasmid pLDL-Luc 1 Neo-10 was used to stably transfect Chinese Hamster Ovary cells using a Lipofection Reagent kit and procedure from Gibco BRL Research Products Division Life Technologies Inc. Transformants were selected by picking individual colonies grown in Dulbecco's modified Eagle's medium supplimented with 10% fetal bovine serum and containing 500 µg per ml […]. […] Clone S27/B30 was used for subsequent screening.
In developing a cell based screen it is important to have a negative control. The viral SV40 promoter is ideal for this purpose in that it has a number of SP1 elements that enhance gene transcription. These elements are not under the control of end product repression; but they do have a high degree of sequence homology with the 16 base pair long sterol response element found in the LDL receptor promoter. The SV40 promoter should therefore be a sensitive mechanism to screen out agents that induce nonspecific transcription.
Chinese Hamster Ovary cells were stably cotransfected with a vector pSV2AL-A 5' containing the SV40 promoter driving expression of the firefly luciferase gene and a second vector pSV2 NeoBam containing a neomycin resistant marker. Transfections were carried out using the Lipofectin Reagent kit and procedure from Gibco BRL Research Products Division Life Technologies Inc. Transformants were selected by picking individual colonies grown in Dulbecco's modified Eagle's medium supplemented with 10% fetal bovine serum and containing 500 µg per ml of geneticin. Individual clones were selected, lysed and assayed for luciferase production. […]
(In general: A reporter such as luciferase makes a cellular process visible.)

[2] abbreviates: tests using 15% luciferase activity cutoff point (footnote 2).
Setting [3] is: 15% luciferase activity cutoff point (footnote 2).
The mark [4] stands for this setting: NA is not active, 30% luciferase activity cutoff point (footnote 1).
[5] abbreviates: tests using 30% luciferase activity cutoff point (footnote 1).
[6] abbreviates: 30% luciferase activity cutoff point (footnote 1).

Values joined by “and” are separate entries in the source; they are usually repeats but may differ in a detail not shown here. Identical values can stand only once. Like-named read-outs stand apart in the source and are kept apart here.

For “4a-4-(2-propenyl)cholestan-3-one [Example 72]”, in the assay on Syrian Golden hamsters, the “Serum Cholesterol Mean” value is recorded as 267 mg/dL and the “Percent Lowering of Cholesterol from Control Value Mean” value (shortened to “Percent Lowering of Cholesterol”) is 20.8%.

In the case of `C=CC[C@@H]1[C@H](O)CC[C@@]2(C)[C@H]1CC[C@@H]1[C@@H]2CC[C@]2(C)[C@@H]([C@H](C)CCCC(C)C)CC[C@@H]12` [(4), (3α,4α,5α,20β)-4-(2-propenyl)cholestan-3-ol], in the assay on Syrian Golden hamsters, the “Serum Cholesterol Mean” value came out at 198 mg/dL and the “Percent Lowering of Cholesterol” value stood at 41.4%.

On to `CC(C)CCC[C@@H](C)[C@H]1CC[C@H]2[C@@H]3CCC4[C@H](Cc5ccccc5)C(=O)CC[C@]4(C)[C@H]3CC[C@]12C` (some centres unmarked) [(5), 4a-benzylcholestan-3-one], for which, in the assay with Syrian Golden hamsters, the “Serum Cholesterol Mean” value is 202 mg/dL and the “Percent Lowering of Cholesterol” value stood at 40.2%.

For `CC=CC[C@@H]1[C@@H](O)CC[C@@]2(C)[C@H]1CC[C@@H]1[C@@H]2CC[C@]2(C)[C@@H]([C@H](C)CCCC(C)C)CC[C@@H]12` [(12), (3β,4α,5α)-4-(2-butenyl)cholestan-3-ol], in the assay on Syrian Golden hamsters, the inhibition in vivo at 100 mg/kg/day is 27.4% and the “Serum Cholesterol Mean” value is 245 mg/dL.

For the compound `C=CC[C@H]1C2CC[C@H]3[C@@H]4CC[C@H]([C@@](C)(O)CCCC(C)C)[C@@]4(C)CC[C@@H]3[C@@]2(C)CC[C@H]1O` (some centres unmarked) [(13), (3a,4a)-4-(2-propenyl)cholestane-3,20-diol], in the assay on Syrian Golden hamsters, the inhibition in vivo at 100 mg/kg/day was 25.1% and the “Serum Cholesterol Mean” value is 253 mg/dL.

Turning to `C=CC[C@@H]1[C@H](O)CC[C@@]2(C)[C@H]1CC[C@@H]1[C@@H]2CC[C@]2(C)C(OCCCCCCCC)CC[C@@H]12` (some centres unmarked) [Example 65, (3a,4a,5a)-17-(octyloxy)-4-(2-propenyl)androstan-3-ol], the MED in assay [1] (setting [2]) is 11.3 and 22.5.

`C=CC[C@H]1C2CC[C@@H]3[C@H](CC[C@]4(C)C(OCCCc5ccccc5)CC[C@@H]34)[C@@]2(C)CC[C@H]1O` (stereo partly drawn) [Example 67, (3α,4α)-17-(3-phenylpropoxy)-4-(2-propenyl)androstan-3-ol]: the MA% was 116% and 118% and 74% in assay [1] (setting [3]); 111% and 76% in assay [1] (setting [4]). Also, in assay [1] (setting [5]), the MED is 11.1 and 22.2.

Turning to `C=CC[C@H]1C2CC[C@@H]3[C@H](CC[C@]4(C)C(OCCCC(C)(C)C)CC[C@@H]34)[C@@]2(C)CC[C@H]1O` (stereo partly drawn) [Example 69, (3α,4α)-17-[(4,4-dimethylpentyl)oxy]-4-(2-propenyl)-androstan-3-ol], in assay [1] (setting [3]), the Emax stood at 48% and the RED is listed as 20.5. In addition, in assay [1] (setting [4]), the Emax turned out to be 39% and the MA% is on record as 47%. The MED in assay [1] (setting [2]) turned out to be 46.5. Further, in assay [1] (setting [6]), the RED was 16.4 and 8.2.

As for `C=CC[C@@H]1C(=O)/C(=C/O)C[C@]2(C)[C@H]3CC[C@]4(C)[C@@H]([C@H](C)CCCC(C)C)CC[C@H]4[C@@H]3CC[C@@H]12` [Example 73, 4a-2-(hydroxymethylene)-4-(2-propenyl)cholestan-3-one], in assay [1] (setting [3]), the Emax was 27% and the RED was 0.97. The MED in assay [1] (setting [2]) is listed as 11.0.

In the case of `CC(C)CCC[C@@H](C)[C@H]1CC[C@H]2[C@@H]3CC[C@H]4C[C@H](O)[C@H](Cc5ccc(F)cc5)C[C@]4(C)[C@H]3CC[C@]12C` [Example 79, (2a, 3a, 5a)-2-[(4-fluorophenyl)methyl]cholestan-3-ol], the Emax in assay [1] (setting [4]) was determined as 29%. For the same compound, the MED in assay [1] (setting [5]) amounted to 40.3. Further, the RED in assay [1] (setting [6]) is 5.4.

As for `CC(C)CCC[C@@H](C)[C@H]1CC[C@H]2[C@@H]3CC[C@H]4[C@H](CC=C(F)F)[C@H](O)CC[C@]4(C)[C@H]3CC[C@]12C` [Example 85, (3a, 4a, 5a, 20β)-4-(3,3-difluoro-2-propenyl) cholestan-3-ol], the Emax in assay [1] (setting [4]) stood at 138%. Moreover, in assay [1] (setting [5]), the MED was found to be 2.7. Further, the RED in assay [1] (setting [6]) came out at 0.36.

For `C=C(C)C[C@@H]1[C@H](O)CC[C@@]2(C)[C@H]1CC[C@@H]1[C@@H]2CC[C@]2(C)[C@@H]([C@H](C)CCCC(C)C)CC[C@@H]12` [Example 89, (3a,4a,5a)-4-(2-methyl-2-propenyl)cholestan-3-ol], the Emax in assay [1] (setting [4]) stood at 102%. Moreover, the MED in assay [1] (setting [5]) came out at 2.8. For the same compound, the RED in assay [1] (setting [6]) is listed as 0.25.

As to `C=C(Cl)C[C@@H]1[C@H](O)CC[C@@]2(C)[C@H]1CC[C@@H]1[C@@H]2CC[C@]2(C)[C@@H]([C@H](C)CCCC(C)C)CC[C@@H]12` [Example 91, (3a,4a,5a)-4-(2-chloro-2-propenyl)cholestan-3-ol], in assay [1] (setting [4]), the Emax worked out at 96%. In assay [1] (setting [5]), the MED was 2.7. In addition, the RED in assay [1] (setting [6]) is 0.24.

`C=C(Br)C[C@@H]1[C@H](O)CC[C@@]2(C)[C@H]1CC[C@@H]1[C@@H]2CC[C@]2(C)[C@@H]([C@H](C)CCCC(C)C)CC[C@@H]12` [Example 93, (3a,4a,5a)-4-(2-bromo-2-propenyl)cholestan-3-ol]: the Emax in assay [1] (setting [4]) is 131%. Also, the MED in assay [1] (setting [5]) is recorded as 4.9. Moreover, in assay [1] (setting [6]), the RED was determined as 0.43.

Take `C=CC[C@@H]1[C@H](O)CC[C@@]2(C)[C@H]1CC[C@@H]1[C@@H]2CC[C@]2(C)[C@@H]([C@H](C)CC[C@@H](CC)C(C)C)CC[C@@H]12` [Example 96, (3a, 4a, 5a)-4-(2-propenyl)-stigmastan-3-ol]: in assay [1] (setting [4]), the Emax came to 93%. For the same compound, the MED in assay [1] (setting [5]) is 8.3. In assay [1] (setting [6]), the RED is 0.73.

Take `C=CC[C@@H]1[C@H](O)CC[C@@]2(C)[C@H]1CC[C@@H]1[C@@H]2CC[C@]2(C)[C@@H]([C@H](C)/C=C/[C@@H](CC)C(C)C)CC[C@@H]12` [Example 98, (3a, 4a, 5a, 22E)-4-(2-propenyl)-stigmast-22-en-3-ol]: the Emax in assay [1] (setting [4]) turned out to be 66%. In addition, the MED in assay [1] (setting [5]) amounted to 22. Further, the RED in assay [1] (setting [6]) amounted to 2.0.

Regarding “[4a(E),5α]-4-(2-butenyl)-25-hydroxycholestan-3a-ol [Example 6]”, in assay [1] (setting [3]), the MA% was 72% and 67%; the RED is 0.96 and 1.90. In addition, the MED in assay [1] (setting [2]) turned out to be 21.7.

The values are drawn from EP0562849A2, “Steroid derivatives” (priority 1992, dated 1993).
